Measurements: US9011816B2, “Fibronectin targeting contrast agent” (Case Western Reserve University, priority 2011, dated 2015)

Assays:
[1] = tested on: orthotopic 4T1 breast tumor; assay: in vivo T1-weighted MR imaging of orthotopic 4T1 breast tumor in BALB/c mice; settings: BALB/c mice bearing orthotopic 4T1 breast tumor; 0.03 mmol-Gd/kg; T1 weighted axial 2D gradient images; versus non-targeted scrambled CLT1-(DOTA-Gd)4
Protocol: A […] breast tumor model was also run. A 4T1 cell line was cultured using ATCC complete growth medium. Female Balb/c mice (4-6 weeks old) were purchased from Jackson Lab. The suspension of 4T1 cells in PBS was mixed with Matrigel matrix at 1:1 ratio. The mixture (2×10^6 cells, 100 μL) was surgically implanted in the mammary pad of a mouse when a mouse was approximately 8-10 weeks old.
FIG. 2 illustrates T1-weighted axial 2D gradient images of […] breast cancer tumor. Both CLT1-(DOTA-Gd)4 and non-targeted scrambled CLT1-(DOTA-Gd)4 were investigated in […] BALB/c mice bearing orthotopic 4T1 […] breast tumor. […] The images in row (A) of the targeted CLT1-(DOTA-Gd)4. Images in row (A) illustrate a time sequence of the targeted CLT1-(DOTA-Gd)4. Images in row (B) illustrate the time sequence for non-targeted CLT1-(DOTA-Gd)4.

[2] = tested on: orthotopic human prostate tumor; assay: in vivo MR imaging of orthotopic human prostate tumor in nu/nu nude athymic mice; settings: nu/nu nude athymic mice bearing orthotopic human prostate tumor; 0.03 mmol-Gd/kg; versus non-targeted scrambled CLT1-(DOTA-Gd)4
Protocol: In animal tumor models […] athymic nu/nu mice (4-6 weeks old), were purchased from the Animal Resource Center (ARC) of Case Western Reserve Universitey. A suspension of PC3 with GFP cells (PC3-GFP) were harvested and suspended in a sterile phosphate-buffered saline solution. The mixture (5×10^5 cells, 25 μL) was surgically inoculated into the ventral prostate through the dorsal prostate.
FIG. 3 illustrates an enhancement ratio and a signal to noise ratio of the targeted CLT1-(DOTA-Gd)4 and non-targeted scrambled CLT1-(DOTA-Gd)4. The MRI contrast agents, targeted CLT1-(DOTA-Gd)4 and non-targeted scrambled CLT1-(DOTA-Gd)4 were administer at 0.03 mmol-Gd/kg in nu/nu nude athymic mice (n=4) bearing orthotopic human prostate tumor.

[3] = tested on: atherosclerotic ApoE-deficient mice; assay: in vivo MR imaging in atherosclerotic ApoE-deficient mice; settings: images at baseline and in fifteen minute intervals up to sixty minutes after injection, versus scrambled peptides and Magnevist
From the text: An atherosclerotic mice model was run with 12 week old Apoe knockout mice (B6.129P2 Apotem1UNC/J) and control mice (C57BL/J6) were purchased from Jackson Lab. Apoe knockout mice were fed with a high fat diet (60% fat) after arriving and were maintained for 6 months. Control mice were fed with a normal diet (6% fat).
FIG. 1 illustrates in vivo MR images acquired in atherosclerotic ApoE-deficient mice before and after injection of targeted CLTI-(DOTA-Gd)4 or CREKA-(DOTA-Gd)4 and non-targeted controls. Arrows point to atherosclerotic aorta and insets are enlargements of aorta. The images show a baseline image at zero minutes before an injection of contrast agent. The images progress to injection and in fifteen minute intervals up to sixty minutes. The images illustrate targeted peptides, scrambled peptides, and Magnevist.

Substance: CLT1-PEG-(Lys)3-(DOTA-Gd)4 [CLT1-(DOTA-Gd)4]
- MR contrast enhancement in tumor tissue (FIG. 2) [1]: greater and longer enhancement in tumor tissue compared to non-targeted scrambled CLT1-(DOTA-Gd)4
- signal intensity within the tumor tissue (enhancement ratio, signal to noise ratio; FIG. 3) [2]: greater enhancement than non-target agents
- MR contrast enhancement (FIG. 1) [3]: greater and longer enhancement in tumor tissue compared to non-targeted scrambled peptides and controls
